Source: PubChem BioAssay AID274 (DTP/NCI, 2004)
Toxic doses and inconclusive results are not listed.

Tested on: BDF1 mice, Lewis lung carcinoma iv, survival T/C
Assay: NCI In Vivo Anticancer Drug Screen. Data for tumor model Lewis Lung Carcinoma (intravenous) in B6D2F1 (BDF1) mice
Conditions: endpoint: median survival time, higher = longer survival
Method: The antitumor activity of compounds was measured in mice bearing transplantable tumors. Survival or tumor size were measured and the results are expressed as the measurement made in the treated group (T) divided by the measurement made in the vehicle treated control group (C). The tumor model used in this assay is Lewis Lung Carcinoma (intravenous) in B6D2F1 (BDF1) mice

[1] = dose: 6.25 mg/kg/injection, schedule: Q01DX009 (ip), vehicle: saline with Tween-80
[2] = dose: 12.5 mg/kg/injection, schedule: Q01DX009 (ip), vehicle: saline with Tween-80
[3] = dose: 100.0 mg/kg/injection, schedule: Q01DX009 (ip), vehicle: saline with Tween-80
[4] = dose: 200.0 mg/kg/injection, schedule: Q01DX009 (ip), vehicle: saline with Tween-80
[5] = dose: 1.56 mg/kg/injection, schedule: Q01DX009 (ip), vehicle: saline with Tween-80
[6] = dose: 3.12 mg/kg/injection, schedule: Q01DX009 (ip), vehicle: saline with Tween-80
[7] = dose: 1.0 mg/kg/injection, schedule: Q01DX009 (ip), vehicle: saline
[8] = dose: 2.0 mg/kg/injection, schedule: Q01DX009 (ip), vehicle: saline
[9] = dose: 25.0 mg/kg/injection, schedule: Q01DX009 (ip), vehicle: saline
[10] = dose: 50.0 mg/kg/injection, schedule: Q01DX009 (ip), vehicle: saline
[11] = dose: 50.0 mg/kg/injection, schedule: Q01DX009 (ip), vehicle: saline with Tween-80

## CCN1C[C@]2(COC)[C@H](O)C[C@H](OC)[C@]34C1[C@H]([C@H](OC)[C@H]23)[C@]1(OC(C)=O)[C@H]2[C@@H](OC(=O)c3ccccc3)[C@](O)(C[C@H]24)[C@@H](OC)[C@@H]1O
dose: 0.03 mg/kg/injection, schedule: Q01DX009 (ip), vehicle: Klucel (hydroxypropylcellulose) (HPC)
  T/C: 108 % of control
dose: 0.06 mg/kg/injection, schedule: Q01DX009 (ip), vehicle: Klucel (hydroxypropylcellulose) (HPC)
  T/C: 107 % of control
dose: 0.13 mg/kg/injection, schedule: Q01DX009 (ip), vehicle: Klucel (hydroxypropylcellulose) (HPC)
  T/C: 99 % of control

## CN=C(N)N/N=C(\c1ccccc1)c1ccc(Br)cc1
dose: 1.5 mg/kg/injection, schedule: Q01DX009 (ip), vehicle: saline with Tween-80
  T/C: 95 % of control
dose: 3.0 mg/kg/injection, schedule: Q01DX009 (ip), vehicle: saline with Tween-80
  T/C: 98 % of control
[1]
  T/C: 99 % of control
[2]
  T/C: 105 % of control

## Oc1ccc2ccccc2c1N=Nc1ccc(F)cc1
[3]
  T/C: 106 % of control
[4]
  T/C: 91 % of control
dose: 400.0 mg/kg/injection, schedule: Q01DX009 (ip), vehicle: saline with Tween-80
  T/C: 106 % of control

## Nc1ccn(C2OC(COC(=O)C34CC5CC(CC(C5)C3)C4)C(O)C2O)c(=O)n1 (stereo not drawn)
[2]
  T/C: 116 % of control

## O=C(CN1CC1)NCCCCCCCCNC(=O)CN1CC1
dose: 3.13 mg/kg/injection, schedule: Q01DX009 (ip), vehicle: Klucel (hydroxypropylcellulose) (HPC)
  T/C: 115 % of control
dose: 6.25 mg/kg/injection, schedule: Q01DX009 (ip), vehicle: Klucel (hydroxypropylcellulose) (HPC)
  T/C: 112 % of control
dose: 12.5 mg/kg/injection, schedule: Q01DX009 (ip), vehicle: Klucel (hydroxypropylcellulose) (HPC)
  T/C: 119 % of control

## O=C1C2(Cl)C3(Cl)C4(Cl)C(Cl)(Cl)C5(Cl)[C@]3(Cl)C1(Cl)[C@]5(Cl)C24Cl (stereo partly drawn)
[5]
  T/C: 301 % of control
[6]
  T/C: 110 % of control
[1]
  T/C: 95 % of control
[2]
  T/C: 122 % of control

## N/C(=N\O)c1cn(C2OC(CO)C(O)C2O)c2ncnc(N)c12 (stereo not drawn)
[7]
  T/C: 91 % of control
[8]
  T/C: 88 % of control
dose: 4.0 mg/kg/injection, schedule: Q01DX009 (ip), vehicle: saline
  T/C: 98 % of control

## NC(=O)c1cn(C2OC(CO)C(O)C2O)c2ncnc(N)c12 (stereo not drawn)
dose: 0.38 mg/kg/injection, schedule: Q01DX009 (ip), vehicle: Klucel (hydroxypropylcellulose) (HPC)
  T/C: 95 % of control
dose: 0.75 mg/kg/injection, schedule: Q01DX009 (ip), vehicle: Klucel (hydroxypropylcellulose) (HPC)
  T/C: 101 % of control
dose: 1.5 mg/kg/injection, schedule: Q01DX009 (ip), vehicle: Klucel (hydroxypropylcellulose) (HPC)
  T/C: 92 % of control

## COc1cccc2c1C(=O)c1c(O)c3c(c(O)c1C2=O)CC(O)(/C(C)=N/NC(=O)CCC(=O)N/N=C(\C)C1(O)Cc2c(O)c4c(c(O)c2C(OC2CC(N)C(O)C(C)O2)C1)C(=O)c1c(OC)cccc1C4=O)CC3OC1CC(N)C(O)C(C)O1 (stereo not drawn)
dose: 1.5 mg/kg/injection, schedule: Q01DX009 (ip), vehicle: water
  T/C: 96 % of control
dose: 3.0 mg/kg/injection, schedule: Q01DX009 (ip), vehicle: water
  T/C: 108 % of control
dose: 6.0 mg/kg/injection, schedule: Q01DX009 (ip), vehicle: water
  T/C: 101 % of control
dose: 12.0 mg/kg/injection, schedule: Q01DX009 (ip), vehicle: water
  T/C: 123 % of control

## CN(C)CCCNc1c2ccccc2nc2cccc([N+](=O)[O-])c12
dose: 44.8 micrograms/kg/injection, schedule: Q04DX003 (ip), vehicle: saline
  T/C: 92 % of control
dose: 124.0 micrograms/kg/injection, schedule: Q04DX003 (ip), vehicle: saline
  T/C: 92 % of control
dose: 346.0 micrograms/kg/injection, schedule: Q04DX003 (ip), vehicle: saline
  T/C: 86 % of control

## c1ccc2c(c1)nnn1c3cnccc3nc21
[5]
  T/C: 103 % of control
[6]
  T/C: 90 % of control
[1]
  T/C: 103 % of control
[2]
  T/C: 109 % of control

## NC(N)=NOCC[C@@H](N)C(=O)O
[9]
  T/C: 105 % of control
[10]
  T/C: 99 % of control
dose: 100.0 mg/kg/injection, schedule: Q01DX009 (ip), vehicle: saline
  T/C: 107 % of control
dose: 200.0 mg/kg/injection, schedule: Q01DX009 (ip), vehicle: saline
  T/C: 94 % of control
dose: 400.0 mg/kg/injection, schedule: Q01DX009 (ip), vehicle: saline
  T/C: 112 % of control

## COC1CC(CC2CCC(C)C(C(C)C(=O)O)O2)OC2(OC(C)(C3CCC(C)(C4OC(C5OC(O)(CO)C(C)CC5C)CC4C)O3)CC2C)C1C (stereo not drawn)
dose: 0.31 mg/kg/injection, schedule: Q01DX009 (ip), vehicle: Klucel (hydroxypropylcellulose) (HPC)
  T/C: 99 % of control
dose: 0.63 mg/kg/injection, schedule: Q01DX009 (ip), vehicle: Klucel (hydroxypropylcellulose) (HPC)
  T/C: 94 % of control
dose: 1.25 mg/kg/injection, schedule: Q01DX009 (ip), vehicle: Klucel (hydroxypropylcellulose) (HPC)
  T/C: 100 % of control
dose: 5.0 mg/kg/injection, schedule: Q01DX009 (ip), vehicle: Klucel (hydroxypropylcellulose) (HPC)
  T/C: 96 % of control

## [Cl][Hg][Cl]
dose: 0.2 mg/kg/injection, schedule: Q01DX009 (ip), vehicle: saline
  T/C: 95 % of control
dose: 0.4 mg/kg/injection, schedule: Q01DX009 (ip), vehicle: saline
  T/C: 99 % of control
dose: 0.78 mg/kg/injection, schedule: Q01DX009 (ip), vehicle: saline
  T/C: 93 % of control
dose: 1.56 mg/kg/injection, schedule: Q01DX009 (ip), vehicle: saline
  T/C: 93 % of control

## CCCCCCCCCCCC(c1ccccc1)[N+](C)(C)Cc1ccccc1 (stereo not drawn)
[7]
  T/C: 98 % of control
[8]
  T/C: 124 % of control

## O=C(Nc1cccc(Cl)c1)ON1C(=O)C2C(C1=O)C1(Cl)C(Cl)C(Cl)C2(Cl)C1(Cl)Cl (stereo not drawn)
[11]
  T/C: 98 % of control
[4]
  T/C: 87 % of control

## Clc1cc(Cl)nc(N2CC2)n1
dose: 1.25 mg/kg/injection, schedule: Q01DX009 (ip), vehicle: saline
  T/C: 91 % of control
dose: 2.5 mg/kg/injection, schedule: Q01DX009 (ip), vehicle: saline
  T/C: 103 % of control
dose: 5.0 mg/kg/injection, schedule: Q01DX009 (ip), vehicle: saline with Tween-80
  T/C: 114 % of control
dose: 5.0 mg/kg/injection, schedule: Q01DX009 (ip), vehicle: saline
  T/C: 103 % of control

## CC(=O)OCC1OC(n2ccc(N)nc2=O)C(OC(C)=O)C1OC(C)=O (stereo not drawn)
dose: 12.5 mg/kg/injection, schedule: Q01DX009 (ip), vehicle: saline
  T/C: 122 % of control
[9]
  T/C: 98 % of control
[10]
  T/C: 109 % of control

## O=C1CC2(C(=O)N1CN1CCOCC1)c1ccccc1-c1ccccc12
dose: 50.0 mg/kg/injection, schedule: Q01DX009 (ip), vehicle: Klucel (hydroxypropylcellulose) (HPC)
  T/C: 94 % of control
dose: 100.0 mg/kg/injection, schedule: Q01DX009 (ip), vehicle: Klucel (hydroxypropylcellulose) (HPC)
  T/C: 98 % of control
dose: 200.0 mg/kg/injection, schedule: Q01DX009 (ip), vehicle: Klucel (hydroxypropylcellulose) (HPC)
  T/C: 101 % of control
dose: 400.0 mg/kg/injection, schedule: Q01DX009 (ip), vehicle: Klucel (hydroxypropylcellulose) (HPC)
  T/C: 112 % of control

## O=C(NCCCCCCCCCCNC(=O)N1CC1)N1CC1
dose: 0.75 mg/kg/injection, schedule: Q01DX009 (ip), vehicle: saline
  T/C: 117 % of control
dose: 1.5 mg/kg/injection, schedule: Q01DX009 (ip), vehicle: saline
  T/C: 110 % of control
dose: 3.0 mg/kg/injection, schedule: Q01DX009 (ip), vehicle: saline
  T/C: 122 % of control
dose: 6.0 mg/kg/injection, schedule: Q01DX009 (ip), vehicle: saline
  T/C: 117 % of control

## COc1cc2c(c(OC)c1OC)-c1ccc(OC)c(=O)cc1[C@@H](NC(C)=O)CC2
dose: 0.19 mg/kg/injection, schedule: Q01DX009 (ip), vehicle: saline
  T/C: 102 % of control
dose: 0.38 mg/kg/injection, schedule: Q01DX009 (ip), vehicle: saline
  T/C: 109 % of control

## COc1cc2ccnc(/C=N\NC(N)=S)c2cc1OC
dose: 25.0 mg/kg/injection, schedule: Q01DX009 (ip), vehicle: saline with Tween-80
  T/C: 101 % of control
[11]
  T/C: 97 % of control
[3]
  T/C: 92 % of control
[4]
  T/C: 103 % of control

## CS(C)=O
dose: 1.5 grams/kg/injection, schedule: Q01DX009 (ip), vehicle: saline
  T/C: 98 % of control
dose: 3.0 grams/kg/injection, schedule: Q01DX009 (ip), vehicle: saline
  T/C: 96 % of control
dose: 6.0 grams/kg/injection, schedule: Q01DX009 (ip), vehicle: saline
  T/C: 96 % of control

## O=S(=O)(O)O.[NH-]C1CCCCC1[NH-].[Pt+2] (stereo not drawn)
dose: 0.63 mg/kg/injection, schedule: Q01DX009 (ip), vehicle: dextrose
  T/C: 101 % of control
dose: 1.25 mg/kg/injection, schedule: Q01DX009 (ip), vehicle: dextrose
  T/C: 110 % of control
